Paper PMC12750995, “Conformational Dynamics in the Cell Membrane Interactions of Bispecific Targeted Degrader Therapeutics” (Journal of Medicinal Chemistry, 2025)

Key:
in vitro = details: human, pH 7.4, n = 3
Protocol: Binding to the cell homogenate was determined at 0.1 μM for all compounds. A Rapid Equilibrium Dialysis device (Thermo Fisher, Waltham, Massachusetts) was used to dialyze the samples by adding 200 μL of the compound-spiked cell homogenate to one chamber and 350 μL of HBSS/HEPES to the other chamber. The cassette was incubated on an Eppendorf ThermoMixer C (Hamburg, Germany) at 900 rpm for 4 h at 37 °C.

[1] = Equilibrium dialysis binding to HEK293 cell homogenate (fraction unbound); type: in vitro ADME; details: human, pH 7.4; fraction unbound in HEK293 cell homogenate, 10 × 10^6 cells/mL, 0.1 μM, 4 h, 37 °C; read-out: fu,hom
Protocol: (§1) The unbound fraction of a selected series of PROTACs was determined through equilibrium dialysis against the cell homogenate. HEK293 cells (ATCC, Manassas, VA) were grown in Dulbecco’s modified Eagle’s medium (DMEM) supplemented with 10% fetal bovine serum (FBS) at 37 °C, 95% relative humidity, and 5% CO2. Cell pellets were harvested using 0.05% trypsin and centrifuged at 260g for 5 min. The cells were resuspended in Dulbecco’s phosphate buffer (DPBS), counted using a Luna II cell counter (Logos Biosystems, Anyang, South Korea) and centrifuged at 260g. The supernatant was discarded, and cell pellets were stored at −80 °C prior to cell homogenate preparation. On the day of the experiment, cell pellets were thawed and resuspended in Hank’s balanced salt solution (HBSS) buffered with 20 mM HEPES (pH 7.4) to a concentration of 10 × 10^6 cells/mL. The cell suspension was homogenized using ultrasonication for 10 s at 20% intensity while kept on ice.
(§2) Compound stability was assessed by adding the compound-spiked cell homogenate to an empty well in the dialysis cassette. At the end of the experiment, these concentrations were compared to identical control samples stored at 4 °C. Mass balance was calculated at the end of each experiment. Further, in all wells, two control compounds (atorvastatin and lopinavir) were included to ensure that the assay plate was functional. All compounds were tested in triplicate in one experiment. Compound 2 was only detected on the cell homogenate side, and thus, the concentration on the buffer side was set to half of the lower limit of quantification to allow calculation of an approximate cell homogenate binding.
(§3) Final samples were matrix matched by taking 1 part sample and 1 part blank cell homogenate or buffer. Proteins were precipitated using 1 part matrix matched sample and 3 parts acetonitrile supplemented with 0.3% formic acid (FA) and 5 nM verapamil (internal standard), and this was diluted 1:1 with Milli-Q prior to centrifugation at 2500g for 20 min. Compound concentrations in the supernatant were quantified using a reversed phase system with a Waters Acquity UPLC HSS T3 column (50 × 2.1 mm, 1.8 μm) in an Aquity UPLC connected to a Xevo TQ-XS mass spectrometer (Waters Corp., Milford, MA). The chromatographic run was done using solvent A (0.1% FA in Milli-Q) and solvent B (0.1% FA in acetonitrile Optima LC/MS grade (Fisher Scientific)) with isocratic conditions between 0 and 0.3 min (99.8% solvent A and 0.2% solvent B), a linear gradient between 0.3 and 1.3 min (from 0.2% to 95% solvent B), isocratic conditions between 1.3 and 1.8 min (95% solvent B), and equilibration back to start conditions between 1.8 and 2.3 min. Mass transitions, cone voltages, and collision energies can be found in Table S4.

HEK293 cell homogenate = assay: as above; type: in vitro ADME; details: for fu,hom mass balance: equilibrium dialysis, 0.1 μM; for cell homogenate binding (bound-to-unbound concentration ratio) compared with matched compound: Figure 6G, 11 vs 9, 8 vs 14, 9 vs 16; for fold higher bound-to-unbound concentration ratio than compound 9: comparator compound 9
Protocol: as §1, §2, §3

[2] = Caco-2 A-B passive permeability with preincubation, transporter-inhibited; type: in vitro ADME; details: human, Caco-2, with 50 μM quinidine, 30 μM benzbromarone, 20 μM sulfasalazine; Figure 3A grouping; read-out: Passive Caco-2 cell permeability group (high, moderate or low)
Protocol: (§4) Transepithelial transport of the compounds through a Caco-2 monolayer (ATCC, HTB-37) was determined in 14–18 days old monolayers in Costar 24-well cell culture cluster plates (polycarbonate membrane, 0.4 μm pore size). Chamber volumes were 200 and 800 μL on the apical and basolateral sides of the cell monolayers, respectively, and all incubations were performed with prewarmed buffers in an orbital shaking incubator at 480 rpm and 37 °C. Prior to the assay, cells were washed with HBSS supplemented with 25 mM HEPES (HBSS-HEPES), pH 7.4, to remove the culture medium. After 15 min of equilibration, the transepithelial electrical resistance (TEER) was determined to assess acceptance of the cell plates into the assay. A second measurement and a lucifer yellow leakage determination was carried out after performing all the transport experiments to monitor integrity of the cell monolayers throughout the study.
(§5) Before the permeability study, to minimize nonspecific binding of PROTACs to the cells and plates, the cells were preincubated with 10 μM compound solution on the apical (donor) side for 1 h, analogous to Muschong et al. Then, cells were washed twice with HBSS-MES pH 6.5 containing 1% BSA. Then, permeability in the absorptive direction (A–B, apical-to-basolateral) was studied over 120 min at a 10 μM test compound concentration. The compound solutions were freshly prepared from DMSO stock solutions diluted into HBSS supplemented with 25 mM MES, pH 6.5, containing efflux inhibitors (50 μM quinidine, 30 μM benzbromarone, and 20 μM sulfasalazine); the final solvent concentration was always 0.5%.
(§6) Samples from the donor side (10 μL) were drawn immediately after the addition of the test compound and after 45 and 120 min. The donor samples were diluted 1:10 in HBSS. From the receiver compartment, an amount of 100 μL was withdrawn after 45 and 120 min and replaced with fresh HBSS-HEPES, pH 7.4.
(§7) Upon completion of the study, all samples were quenched with 300 μL of acetonitrile and analyzed subsequently using UPLC/MS/MS. The permeability was determined as the appearance rate of the compound on the receiver side, in relation to donor concentration, according to eq 4 Papp=dQ/[(dt)(T)]×A/D where dQ/[(dt)(T)] is the slope of the permeation profile across the Caco-2 cell monolayers, A is the surface area of the Transwell insert (0.33 cm^2), and D is the concentration on the donor side. Following the permeability experiments, recovery from the donor and receiver compartments was calculated using eq 5 recovery(%)(0−120min)=CR120×VR+CR45×0.1+CD45×0.01+CD120×VD/D0×VD×100

Caco-2 monolayer = assay: as above; type: in vitro ADME; details: recovery from donor and receiver compartments, 0-120 min
Protocol: as §4, §5, §6, §7

| Compound | fraction unbound at 4 h, 0.1 μM (in vitro; HEK293 cell homogenate) | Papp A→B at 120 min, 10 μM [2] [nm/s] | also measured |
| --- | --- | --- | --- |
| Cc1sc2c(c1C)C(c1ccc(Cl)cc1)=N[C@@H](CC(=O)NC[C@@H]1CCC[C@H](CNc3cccc4c3C(=O)N(C3CCC(=O)NC3=O)C4=O)C1)c1nnc(C)n1-2 (mixture of isomers) [Compound 12, 2-((6S)-4-(4-Chlorophenyl)-2,3,9-trimethyl-6H-thieno[3,2-f][1,2,4]triazolo[4,3-a][1,4]diazepin-6-yl)-N-(((1RS,3SR)-3-(((2-(2,6-dioxopiperidin-3-yl)-1,3-dioxoisoindolin-4-yl)amino)methyl)cyclohexyl)methyl)acetamide] | 0.007 | – | – |
| COc1cc2c(Oc3ccc(NC(=O)C4(C(=O)Nc5ccc(F)cc5)CC4)cc3F)ccnc2cc1OCCCCOCCCCOCC(=O)NC(C(=O)N1CC(O)CC1C(=O)NCc1ccc(-c2scnc2C)cc1)C(C)(C)C (stereo not shown) [Compound 1] | – | < 5 | fraction unbound at 4 h, 0.1 μM [1]: 0.011; fu,hom mass balance (HEK293 cell homogenate; HEK293 cell homogenate): 118%; Papp Recovery (%) (0-120 min) (Caco-2 monolayer): 39% |
| Cc1ncsc1-c1ccc(CNC(=O)[C@@H]2C[C@@H](O)CN2C(=O)[C@@H](NC(=O)COCCCCOc2ccc(-c3ccc(N4C(=S)N(c5ccc(C#N)c(C(F)(F)F)c5)C(=O)C4(C)C)cc3)cc2)C(C)(C)C)cc1 [Compound 2] | – | < 5 | fraction unbound at 4 h, 0.1 μM [1]: 0.016; fu,hom mass balance (HEK293 cell homogenate; HEK293 cell homogenate): 109%; Papp Recovery (%) (0-120 min) (Caco-2 monolayer): 87% |
| Cc1ncsc1-c1ccc(CNC(=O)[C@H]2C[C@H](O)CN2C(=O)[C@@H](NC(=O)COCCOCCOCCNC(=O)C[C@@H]2N=C(c3ccc(Cl)cc3)c3c(sc(C)c3C)-n3c(C)nnc32)C(C)(C)C)cc1 [Compound 6] | 0.242 | 5 to 100 | – |
| COc1cc(-c2cn(C)c(=O)c3cnccc23)cc(OC)c1CN(C)CC(=O)NCCCCCCCCNc1cccc2c1C(=O)N(C1CCC(=O)NC1=O)C2=O (stereo not shown) [Compound 7] | 0.19 | > 100 | – |
| Cc1sc2c(c1C)C(c1ccc(Cl)cc1)=N[C@@H](CC(=O)NCCCCCCCCNC(=O)COc1cccc3c1C(=O)N(C1CCC(=O)NC1=O)C3=O)c1nnc(C)n1-2 (stereo partly shown) [Compound 8] | 0.133 | > 100 | cell homogenate binding (bound-to-unbound concentration ratio) compared with matched compound (HEK293 cell homogenate): higher experimental binding than 14; fold higher bound-to-unbound concentration ratio than compound 9 (HEK293 cell homogenate; HEK293 cell homogenate): 4.6 fold |
| Cc1sc2c(c1C)C(c1ccc(Cl)cc1)=N[C@@H](CC(=O)NCCCCNC(=O)COc1cccc3c1C(=O)N(C1CCC(=O)NC1=O)C3=O)c1nnc(C)n1-2 (stereo partly shown) [Compound 9] | 0.411 | < 5 | cell homogenate binding (bound-to-unbound concentration ratio) compared with matched compound (HEK293 cell homogenate): higher cell homogenate binding than 16 |
| COc1cc(-c2cn(C)c(=O)c3cnccc23)cc(OC)c1CN(C)CC(=O)NCCOCCOCCNc1cccc2c1C(=O)N(C1CCC(=O)NC1=O)C2=O (stereo not shown) [Compound 10] | – | < 5 | fold lower bound-to-unbound concentration ratio (membrane binding) than compound 7 (HEK293 cell homogenate; HEK293 cell homogenate, comparator compound 7): 5.3 fold; fraction unbound at 4 h, 0.1 μM (in vitro; tissue homogenate): 0.557 |
| Cc1ncsc1-c1ccc(CNC(=O)[C@@H]2C[C@@H](O)CN2C(=O)[C@@H](NC(=O)CCCCNC(=O)C[C@@H]2N=C(c3ccc(Cl)cc3)c3c(sc(C)c3C)-n3c(C)nnc32)C(C)(C)C)cc1 [Compound 11, (2S,4R)-1-((2S)-2-(5-(2-((6S)-4-(4-Chlorophenyl)-2,3,9-trimethyl-6H-thieno[3,2-f][1,2,4]triazolo[4,3-a][1,4]diazepin-6-yl)acetamido)pentanamido)-3,3-dimethylbutanoyl)-4-hydroxy-N-(4-(4-methylthiazol-5-yl)benzyl)pyrrolidine-2-carboxamide] | 0.139 | – | cell homogenate binding (bound-to-unbound concentration ratio) compared with matched compound (HEK293 cell homogenate): higher cell homogenate binding than the CRBN-binding 9; fold higher bound-to-unbound concentration ratio than compound 9 (HEK293 cell homogenate; HEK293 cell homogenate): 3 fold |
| Cc1sc2c(c1C)C(c1ccc(Cl)cc1)=N[C@@H](CC(=O)NCCCNc1cccc3c1C(=O)N(C1CCC(=O)NC1=O)C3=O)c1nnc(C)n1-2 (stereo partly drawn) [Compound 13, 2-((6S)-4-(4-Chlorophenyl)-2,3,9-trimethyl-6H-thieno[3,2-f][1,2,4]triazolo[4,3-a][1,4]diazepin-6-yl)-N-(3-((2-(2,6-dioxopiperidin-3-yl)-1,3-dioxoisoindolin-4-yl)amino)propyl)acetamide] | – | – | fraction unbound at 4 h, 0.1 μM (in vitro; tissue homogenate): 0.228 |
| Cc1sc2c(c1C)C(c1ccc(Cl)cc1)=N[C@@H](CC(=O)NCCOCCOCCNC(=O)COc1cccc3c1C(=O)N(C1CCC(=O)NC1=O)C3=O)c1nnc(C)n1-2 (stereo partly drawn) [Compound 14, 2-((6S)-4-(4-Chlorophenyl)-2,3,9-trimethyl-6H-thieno[3,2-f][1,2,4]triazolo[4,3-a][1,4]diazepin-6-yl)-N-(2-(2-(2-(2-((2-(2,6-dioxopiperidin-3-yl)-1,3-dioxoisoindolin-4-yl)oxy)acetamido)ethoxy)ethoxy)ethyl)acetamide] | 0.432 | – | – |
| Cc1sc2c(c1C)C(c1ccc(Cl)cc1)=N[C@@H](CC(=O)N1CCN(c3cccc4c3C(=O)N(C3CCC(=O)NC3=O)C4=O)CC1)c1nnc(C)n1-2 (stereo partly drawn) [Compound 15, 4-(4-(2-((6S)-4-(4-Chlorophenyl)-2,3,9-trimethyl-6H-thieno[3,2-f][1,2,4]triazolo[4,3-a][1,4]diazepin-6-yl)acetyl)piperazin-1-yl)-2-(2,6-dioxopiperidin-3-yl)isoindoline-1,3-dione] | 0.182 | – | – |
| Cc1sc2c(c1C)C(c1ccc(Cl)cc1)=N[C@@H](CC(=O)NCCOCCNC(=O)COc1cccc3c1C(=O)N(C1CCC(=O)NC1=O)C3=O)c1nnc(C)n1-2 (stereo partly drawn) [Compound 16, 2-((6S)-4-(4-Chlorophenyl)-2,3,9-trimethyl-6H-thieno[3,2-f][1,2,4]triazolo[4,3-a][1,4]diazepin-6-yl)-N-(2-(2-(2-((2-(2,6-dioxopiperidin-3-yl)-1,3-dioxoisoindolin-4-yl)oxy)acetamido)ethoxy)ethyl)acetamide] | 0.5 | – | – |
| Cc1sc2c(c1C)C(c1ccc(Cl)cc1)=N[C@@H](CC(=O)N1CCC(Oc3cccc4c3C(=O)N(C3CCC(=O)NC3=O)C4=O)C1)c1nnc(C)n1-2 (stereo partly drawn) [Compound 17, 4-((1-(2-((6S)-4-(4-Chlorophenyl)-2,3,9-trimethyl-6H-thieno[3,2-f][1,2,4]triazolo[4,3-a][1,4]diazepin-6-yl)acetyl)pyrrolidin-3-yl)oxy)-2-(2,6-dioxopiperidin-3-yl)isoindoline-1,3-dione] | 0.357 | – | – |
